Measured values taken from PubChem BioAssay AID328 (DTP/NCI, 2004).
Values joined by “and” are separate entries in the source; they are usually repeats but may differ in a detail not shown here. Identical values can stand only once. Toxic doses and inconclusive results are not listed. The calls were made as follows: active = survival T/C of 150% or more; inactive = T/C below 125% in these data.

Test system: BDF1 mice, P388 leukemia ip, median survival T/C
Assay: NCI In Vivo Anticancer Drug Screen. Data for tumor model P388 Leukemia (intraperitoneal) in B6D2F1 (BDF1) mice
Details: endpoint: median survival time, higher = longer survival
Method in brief: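 Antitumour effect was judged in vivo: survival in drug-treated mice, normalised to that of vehicle-dosed controls, gives the reported T/C.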

[1] = dose: 200.0 mg/kg/injection, schedule: Q01DX009 (ip), vehicle: saline with Tween-80
[2] = dose: 400.0 mg/kg/injection, schedule: Q04DX003 (ip), vehicle: Klucel (hydroxypropylcellulose) (HPC)
[3] = dose: 50.0 mg/kg/injection, schedule: Q04DX003 (ip), vehicle: saline
[4] = dose: 100.0 mg/kg/injection, schedule: Q04DX003 (ip), vehicle: saline
[5] = dose: 200.0 mg/kg/injection, schedule: Q04DX003 (ip), vehicle: saline
[6] = dose: 50.0 mg/kg/injection, schedule: Q01DX009 (ip), vehicle: Klucel (hydroxypropylcellulose) (HPC)
[7] = dose: 100.0 mg/kg/injection, schedule: Q01DX009 (ip), vehicle: Klucel (hydroxypropylcellulose) (HPC)
[8] = dose: 100.0 mg/kg/injection, schedule: Q04DX003 (ip), vehicle: Klucel (hydroxypropylcellulose) (HPC)
[9] = dose: 200.0 mg/kg/injection, schedule: Q04DX003 (ip), vehicle: Klucel (hydroxypropylcellulose) (HPC)
[10] = dose: 25.0 mg/kg/injection, schedule: Q01DX009 (ip), vehicle: water
[11] = dose: 50.0 mg/kg/injection, schedule: Q01DX009 (ip), vehicle: water
[12] = dose: 50.0 mg/kg/injection, schedule: Q04DX003 (ip), vehicle: water
[13] = dose: 100.0 mg/kg/injection, schedule: Q01DX009 (ip), vehicle: water
[14] = dose: 100.0 mg/kg/injection, schedule: Q04DX003 (ip), vehicle: water
[15] = dose: 200.0 mg/kg/injection, schedule: Q01DX009 (ip), vehicle: water
[16] = dose: 100.0 mg/kg/injection, schedule: Q01DX009 (ip), vehicle: saline with Tween-80
[17] = dose: 25.0 mg/kg/injection, schedule: Q01DX009 (ip), vehicle: saline with Tween-80
[18] = dose: 50.0 mg/kg/injection, schedule: Q01DX009 (ip), vehicle: saline with Tween-80
[19] = dose: 100.0 mg/kg/injection, schedule: Q04DX003 (ip), vehicle: saline with Tween-80
[20] = dose: 200.0 mg/kg/injection, schedule: Q04DX003 (ip), vehicle: saline with Tween-80
[21] = dose: 400.0 mg/kg/injection, schedule: Q04DX003 (ip), vehicle: saline with Tween-80

Measured: T/C

CCCCCN(C)/N=N/c1nc[nH]c1C(N)=O
inactive: [1] 100 % of control | dose: 264.0 mg/kg/injection, schedule: Q04DX003 (ip), vehicle: Klucel (hydroxypropylcellulose) (HPC) 90 % of control | [2] 86 % of control

O=C(O)CNCc1ccc(F)cc1
inactive: [3] 111 % of control | [4] 120 % of control | [5] 115 % of control

O/N=C\c1ccccc1
inactive: dose: 25.0 mg/kg/injection, schedule: Q01DX009 (ip), vehicle: Klucel (hydroxypropylcellulose) (HPC) 108 % of control | [6] 95 % of control | dose: 75.0 mg/kg/injection, schedule: Q04DX003 (ip), vehicle: saline with Tween-80 110 % of control | [7] 91 % of control | dose: 150.0 mg/kg/injection, schedule: Q04DX003 (ip), vehicle: saline with Tween-80 105 % of control

CCC1(O)C2CCCC1CCC2 (configuration not stated)
inactive: dose: 100.0 mg/kg/injection, schedule: Q01DX009 (ip), vehicle: other 100 % of control | [8] 100 % of control | dose: 200.0 mg/kg/injection, schedule: Q01DX009 (ip), vehicle: other 109 % of control | [9] 108 % of control | dose: 400.0 mg/kg/injection, schedule: Q01DX009 (ip), vehicle: other 113 % of control | [2] 100 % of control

C/C(=C\C(=O)O)CC(=O)O
inactive: [10] 109 % of control | [11] 95 % of control | [12] 92 % of control | [13] 99 % of control | [14] 99 % of control and 108 % of control | [15] 101 % of control | dose: 200.0 mg/kg/injection, schedule: Q04DX003 (ip), vehicle: water 104 % of control and 110 % of control

CCCc1cc(CCC)nc(NNc2nc(CCC)cc(CCC)n2)n1
inactive: [16] 86 % of control | [1] 100 % of control | dose: 400.0 mg/kg/injection, schedule: Q01DX009 (ip), vehicle: saline with Tween-80 100 % of control

COC(=O)C(N)CN (configuration not stated)
inactive: dose: 175.0 mg/kg/injection, schedule: Q01DX009 (ip), vehicle: saline with Tween-80 89 % of control

O=C(O)C1CSC(c2ccccc2)N1 (configuration not stated)
inactive: [17] 111 % of control | [16] 109 % of control | [1] 100 % of control

CC1CCc2c(ccc3ccccc23)C1=O (configuration not stated)
inactive: dose: 100.0 mg/kg/injection, schedule: Q01DX009 (ip), vehicle: gum acacia 92 % of control | dose: 100.0 mg/kg/injection, schedule: Q04DX003 (ip), vehicle: gum acacia 107 % of control | dose: 200.0 mg/kg/injection, schedule: Q01DX009 (ip), vehicle: gum acacia 100 % of control | dose: 200.0 mg/kg/injection, schedule: Q04DX003 (ip), vehicle: gum acacia 103 % of control | dose: 400.0 mg/kg/injection, schedule: Q01DX009 (ip), vehicle: gum acacia 100 % of control | dose: 400.0 mg/kg/injection, schedule: Q04DX003 (ip), vehicle: gum acacia 89 % of control

CC(=O)n1ccc(=O)[nH]c1=O
inactive: [18] 102 % of control | [16] 110 % of control | [1] 99 % of control

CSC(=S)NN=C(C)C
inactive: dose: 3.13 mg/kg/injection, schedule: Q01DX009 (ip), vehicle: saline with Tween-80 96 % of control

CC(C)(C)CC(C)(C)c1ccc(O)cc1O
inactive: [17] 120 % of control | [18] 95 % of control

O=[N+]([O-])c1ccc(N2CCN(c3cccc(C(F)(F)F)c3)CC2)c([N+](=O)[O-])c1
inactive: [19] 113 % of control | [20] 100 % of control | [21] 100 % of control

OC(OCCCCCCOC(O)C(Cl)(Cl)Cl)C(Cl)(Cl)Cl (configuration not stated)
inactive: [19] 95 % of control | [20] 95 % of control | [21] 90 % of control

ClC1=C(Cl)[C@@]2(Cl)[C@H]3[C@H]4C[C@H]([C@@H]5O[C@H]45)[C@H]3[C@@]1(Cl)C2(Cl)Cl
inactive: dose: 3.12 mg/kg/injection, schedule: Q01DX009 (ip), vehicle: Klucel (hydroxypropylcellulose) (HPC) 91 % of control | dose: 6.25 mg/kg/injection, schedule: Q01DX009 (ip), vehicle: Klucel (hydroxypropylcellulose) (HPC) 87 % of control

COC(=O)Nc1cccc(NC(=O)C(=O)O)c1
inactive: dose: 50.0 mg/kg/injection, schedule: Q04DX003 (ip), vehicle: saline with Tween-80 100 % of control | [19] 100 % of control

COc1ccc(CC(=O)N2CCc3cc(OC)c(OC)cc3C2O)cc1OC (configuration not stated)
inactive: dose: 12.5 mg/kg/injection, schedule: Q01DX009 (ip), vehicle: saline with Tween-80 101 % of control | [17] 89 % of control | [18] 94 % of control | [16] 114 % of control

Cc1ccc(C2NC(=O)c3ccccc3N2)s1 (configuration not stated)
inactive: [6] 107 % of control and 113 % of control

O=C(Cc1ccc(F)cc1)c1ccccc1
inactive: [19] 88 % of control | [20] 111 % of control | [21] 105 % of control

O=S(=O)(O)c1cccc2cccc(Cl)c12
inactive: [4] 100 % of control | [5] 95 % of control | dose: 400.0 mg/kg/injection, schedule: Q04DX003 (ip), vehicle: saline 100 % of control

COc1ccc(C2=NNC(=O)OC2c2ccccc2)cc1 (configuration not stated)
inactive: [17] 92 % of control and 102 % of control | [18] 91 % of control and 96 % of control and 99 % of control | [16] 100 % of control and 110 % of control | [1] 91 % of control and 102 % of control and 105 % of control

C[CH2][Pb]([CH2]C)([CH2]C)[O][As](=O)(O)c1ccc(N)cc1
inactive: dose: 1.5 mg/kg/injection, schedule: Q01DX009 (ip), vehicle: saline 107 % of control | dose: 2.0 mg/kg/injection, schedule: Q01DX009 (ip), vehicle: saline 111 % of control | dose: 3.0 mg/kg/injection, schedule: Q01DX009 (ip), vehicle: saline 103 % of control | dose: 4.5 mg/kg/injection, schedule: Q01DX009 (ip), vehicle: saline 95 % of control

CSc1cc(C(N)=O)c2c(N)nc(SC)nc2n1
inactive: dose: 25.0 mg/kg/injection, schedule: Q01DX001 (ip), vehicle: saline with Tween-80 111 % of control | dose: 50.0 mg/kg/injection, schedule: Q01DX001 (ip), vehicle: saline with Tween-80 109 % of control | dose: 100.0 mg/kg/injection, schedule: Q01DX001 (ip), vehicle: saline with Tween-80 100 % of control and 111 % of control | dose: 400.0 mg/kg/injection, schedule: Q01DX001 (ip), vehicle: saline with Tween-80 100 % of control

Cc1ccc(C)c(NC(=O)c2cccc(Cl)c2)c1
inactive: [19] 104 % of control | [20] 100 % of control | [21] 104 % of control

O=C1c2ccccc2C(=O)N1c1c2ccccc2cc2ccccc12
inactive: [19] 100 % of control | [20] 104 % of control | [21] 100 % of control

COc1ccc(C)cc1CN1NC(=O)CC1=N
inactive: [7] 100 % of control | [8] 100 % of control | dose: 200.0 mg/kg/injection, schedule: Q01DX009 (ip), vehicle: Klucel (hydroxypropylcellulose) (HPC) 109 % of control | [9] 122 % of control | dose: 400.0 mg/kg/injection, schedule: Q01DX009 (ip), vehicle: Klucel (hydroxypropylcellulose) (HPC) 100 % of control | [2] 94 % of control

CN(C)CCNC1=CC(=O)c2ccccc2C1=O
inactive: dose: 12.5 mg/kg/injection, schedule: Q01DX009 (ip), vehicle: water 91 % of control | dose: 12.5 mg/kg/injection, schedule: Q04DX003 (ip), vehicle: water 107 % of control | [10] 102 % of control | dose: 25.0 mg/kg/injection, schedule: Q04DX003 (ip), vehicle: water 100 % of control | [11] 100 % of control | [12] 100 % of control | [13] 98 % of control | [14] 98 % of control | [15] 96 % of control and 105 % of control

CC(C)(C)C(=O)/C=C/c1ccccc1
inactive: [18] 94 % of control | [16] 90 % of control | [1] 105 % of control

CS(C)=O.CS(C)=O.[Cl][Sn]([Cl])([Cl])[Cl]
inactive: dose: 37.5 mg/kg/injection, schedule: Q01DX009 (ip), vehicle: Klucel (hydroxypropylcellulose) (HPC) 105 % of control | dose: 75.0 mg/kg/injection, schedule: Q01DX009 (ip), vehicle: Klucel (hydroxypropylcellulose) (HPC) 100 % of control | [8] 104 % of control | dose: 150.0 mg/kg/injection, schedule: Q01DX009 (ip), vehicle: Klucel (hydroxypropylcellulose) (HPC) 100 % of control | [9] 90 % of control

O=C(/C=C/c1ccccc1)N1CCOCC1
inactive: [3] 95 % of control | [4] 95 % of control
